{
  "source": "paper PMC11617632",
  "about": "“Long-range conformational changes in the nucleotide-bound states of the DEAD-box helicase Vasa” (Biophysical Journal, 2024)",
  "format_in_all_cases": "binding",
  "key": {"[1]": {"target": "T1, Vasa (Bombyx mori, UniProt O01378)", "T1 construct": "gene BmVLG", "T1 sequence (O01378 135-564)": "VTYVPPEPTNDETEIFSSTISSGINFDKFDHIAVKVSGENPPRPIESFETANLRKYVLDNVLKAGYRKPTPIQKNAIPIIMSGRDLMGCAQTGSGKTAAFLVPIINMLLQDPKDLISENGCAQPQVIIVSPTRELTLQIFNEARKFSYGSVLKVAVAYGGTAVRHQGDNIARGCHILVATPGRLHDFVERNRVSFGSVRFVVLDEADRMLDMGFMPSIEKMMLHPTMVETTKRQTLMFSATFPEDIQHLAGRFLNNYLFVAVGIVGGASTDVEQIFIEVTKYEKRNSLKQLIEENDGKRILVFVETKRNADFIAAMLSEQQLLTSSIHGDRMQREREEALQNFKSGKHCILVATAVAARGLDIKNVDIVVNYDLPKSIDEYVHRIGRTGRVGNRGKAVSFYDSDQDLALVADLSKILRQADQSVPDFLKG", "assay": "NMR titration, 1H-13C methyl-HMQC, slow exchange"}, "[2]": {"target": "T2, Vasa (Bombyx mori, UniProt O01378)", "T2 construct": "gene BmVLG", "T2 sequence (O01378 135-400)": "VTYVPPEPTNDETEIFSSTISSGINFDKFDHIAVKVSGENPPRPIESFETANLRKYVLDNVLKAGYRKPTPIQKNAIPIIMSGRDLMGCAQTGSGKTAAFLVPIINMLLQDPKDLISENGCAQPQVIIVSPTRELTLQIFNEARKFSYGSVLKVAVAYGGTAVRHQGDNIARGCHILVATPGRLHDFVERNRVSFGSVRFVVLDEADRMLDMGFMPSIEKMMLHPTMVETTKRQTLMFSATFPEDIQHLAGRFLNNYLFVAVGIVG", "assay": "NMR CSP titration, fast exchange"}, "[3]": {"target": "T1, Vasa", "assay": "NMR methyl CSP titration, fast exchange (not saturated; KD inaccurate)"}},
  "data": [
    {"smiles": "Nc1ncnc2c1ncn2[C@@H]1O[C@H](COP(=O)(O)OP(=O)(O)O)[C@@H](O)[C@H]1O", "note": "[ADP]", "values": [
      {"measurement": "Kd", "setting": "[1]", "result": "53 ± 15", "unit": "µM"}
    ]},
    {"smiles": "Nc1ncnc2c1ncn2[C@@H]1O[C@H](COP(=O)(O)OP(=O)(O)OP(=O)(O)O)[C@@H](O)[C@H]1O", "note": "[ATP]", "values": [
      {"measurement": "Kd", "setting": "[2]", "result": "1600 ± 600", "unit": "µM"}
    ]},
    {"smiles": "Nc1ncnc2c1ncn2[C@@H]1O[C@H](CO[P@](=O)(O)O[P@](=O)(O)O[P@@](=O)(O)S)[C@@H](O)[C@H]1O", "note": "[ATPγS, adenosine 5′-γ-thiotriphosphate]", "values": [
      {"measurement": "Kd", "setting": "[3]", "result": "~18800", "unit": "µM"}
    ]}
  ]
}
